Experimental data from patent EP0338042B1, “COMPOSITION AND METHOD FOR TREATING HEPATITIS VIRUS INFECTIONS USING 1-(2'-DEOXY-2'-FLUORO-BETA-D-ARABINOFURANOSYL)-5-ETHYLURACIL” (priority 1987, dated 1989).

Legend:
[1] = test system: woodchuck hepatitis virus (WHV); assay: Inhibition of WHV replication in chronically infected woodchucks (DNA polymerase activity); type: in vivo, woodchucks (Marmota monax)
Procedure: All woodchucks bearing chronic active hepatitis virus (Hantz, supra) were administered FMAU twice daily by interperitoneal injections of FMAU in the following dosages:
Studies were then undertaken to evaluate FMAU and FEAU in this animal model using woodchucks naturally chronically-infected with woodchuck hepatitis virus (24). It was assumed that these nucleosides would be anabolized to their nucleoside triphosphates within the animal. WHV replication was measured periodically by the endogenous DNA polymerase activity and by the detection of WHV DNA by the dot-blot hybridization assay. Three different dosages of FMAU and FEAU were investigated. FMAU at 2 mg/kg/day x 5, (given intraperitoneally TABLE VIII
In accordance with the procedures of Example 2, the FEAU inhibition of WHV replication was further studied at different doses administered orally to woodchucks through stomach tubes. Two groups of woodchucks with different initial WHV replication values were examined.
Seven woodchucks with high WHV replication were tested. High replication was defined as over 1000 counts per minute of DNA polymerase activity, and the mean replication was 1600.
Seven woodchucks with low WHV replication were tested. Low replication was defined as lower than 1000 counts per minute of DNA polymerase activity, and the mean replication was 600-800.

[2] = test system: simian varicella virus (SVV); assay: Simian varicella virus infection in the African green monkey
[3] = test system: P-815 CELLS; assay: Inhibition of thymidine incorporation into DNA; type: cell-based, rodent; conditions: Mus musculus, P815; read-out: ED50 FOR INHIBITING THYMIDINE INCORPORATION INTO DNA, P-815 CELLS
[4] = test system: HSV-1(F); assay: Plaque reduction assay in Vero cells; type: cell-based; conditions: monkey
Text: (§1) With FMAU as a lead compound, the syntheses of other 5-alkyl substituted 2′-fluoro-ara-uracils were undertaken (8, 9), including 1-(2′-deoxy-2′-fluoro-beta-D-arabinofuranosyl)-5-ethyluracil [FEAU].

[5] = test system: HSV-2(G); assay: Plaque reduction assay in Vero cells; type: cell-based; conditions: monkey
Text: as §1

[6] = patients with advanced cancer, x 5; cited from earlier work
[7] = test system: HSV-2(G); conditions: plaque reduction in Vero cells, cited from earlier work
[8] = test system: Vero cells; assay: Inhibition of cell growth; type: cell-based, African green monkey; conditions: Chlorocebus sabaeus, read-out: ED50 FOR INHIBITING CELL GROWTH IN VERO CELLS
[9] = test system: VERO; assay: Incorporation of 2-14C-labeled nucleoside into DNA of cells; type: cell-based, African green monkey; conditions: FEAU also not detectable at 100 μM
Text: (§2) There was no detectable incorporation of FEAU radioactivity into the DNA of either L-1210 or Vero cell lines, but substantial amounts of FMAU radioactivity were incorporated into the DNA of both cell lines. When HSV-1 infected Vero cells were exposed to ¹⁴C-labeled FEAU and FMAU, both nucleosides incorporated into the DNA of these virus-infected cells.

[10] = test system: HSV-1 INFECTED VERO CELLS; assay: as above; type: cell-based, African green monkey
Text: as §2

[11] = test system: L-1210; assay: as above; type: cell-based, rodent; conditions: FEAU also not detectable at 100 μM
Text: as §2

[12] = test system: L-1210 CELLS; assay: Inhibition of thymidine incorporation into DNA; type: cell-based, rodent; conditions: Mus musculus, L1210; read-out: ED50 FOR INHIBITING THYMIDINE INCORPORATION INTO DNA, L-1210 CELLS
[13] = test system: HSV-1(F); conditions: plaque reduction in Vero cells, cited from earlier work
[14] = test system: HSV-2 (STRAIN G); conditions: FMAU 0.5 MG/KG/DAY, cited from earlier work
[15] = test system: RAT BONE MARROW CELLS; assay: Inhibition of thymidine incorporation into DNA; type: cell-based; conditions: Bone marrow cell, read-out: ED50 FOR INHIBITING THYMIDINE INCORPORATION INTO DNA, RAT BONE MARROW CELLS
[16] = test system: HL-60 CELLS; assay: Inhibition of cell growth; type: cell-based; conditions: Homo sapiens, HL-60; read-out: ED50 FOR INHIBITING CELL GROWTH IN HL-60 CELLS
[17] = Toxicity in dogs
[18] = in vivo experiments with mice; cited from earlier work
[19] = 0.2 mg/kg/day, FMAU x 5, FEAU x 10

## Cc1cn([C@@H]2O[C@H](CO)[C@@H](O)[C@@H]2F)c(=O)[nH]c1=O [FMAU, 1-(2'-deoxy-2'-fluoro-beta-D-arabinofuranosyl)-5-methyluracil, reference compound]
[1]; [19]
  suppression of viral replication: equally effective
  toxicity: less severe and delayed toxicity
[1]; 2 mg/kg/day x 5, intraperitoneally
  WHV DNA polymerase activity: complete suppression
[1]; 2 mg/kg/day x 5, intraperitoneally, eventually lethal
  toxicity: severe CNS toxicity
[1]; i.p. 2 mg/kg per day for 7 days or 4 mg/kg per day for 5 days
  persistence of inhibition of WHV replication after cessation of treatment: 20 to 50 days
[1]; i.p. twice daily, 2 mg/kg per day for 7 days or 4 mg/kg per day for 5 days, end of one week following dosage administrations
  woodchuck hepatitis virus DNA polymerase: fallen to background levels
[1]; woodchucks, previous results
  toxicity (previous results): lethal toxicity
[2]; Cercopithecine alphaherpesvirus 9, in Primates
  minimal effective dose: ~0.04 mg/kg/day
[2]; monkey, in vivo
  potency against SVV compared with FEAU: about 40 fold
[3]
  EC50: 14 µM
[4]
  THER. INDEX ID₅₀/ED₉₀ HSV-1: 67
[5]
  THER. INDEX ID₅₀/ED₉₀ HSV-2: 31
[6]
  intravenous dose with dose-limiting CNS toxicity: 0.8 mg/kg/day
[7]; read-out: HSV-2(G) ED₅₀
  EC50: 0.023 µM
[7]; read-out: HSV-2(G) ED₉₀
  EC90: 0.09 µM
[8]
  EC50: 2.8 µM
[9]
  INCORPORATION INTO DNA AT 10μM, VERO: 1.3 p MOLE/10^6 CELLS/HR
[10]
  incorporation into HSV-1-infected Vero cells compared with FEAU: seven-fold greater
[10]; [2-14C] labeled nucleoside
  INCORPORATION INTO DNA AT 10μM, HSV-1 INFECTED VERO CELLS: 3.4 p MOLE/10^6 CELLS/HR
[11]
  INCORPORATION INTO DNA AT 10μM, L-1210: 0.69 p MOLE/10^6 CELLS/HR
[12]
  EC50: 28 µM
[13]; read-out: HSV-1(F) ED₅₀
  EC50: 0.01 µM
[13]; read-out: HSV-1(F) ED₉₀
  EC90: 0.042 µM
[14]; twice a day for 4 days from 5 hr after inoculation, calculated on day 21
  MDD: 9.4
[14]; twice a day for 4 days
  % SURVIVORS: 67%
[14]; compared to day 1
  %WT GAIN ON DAY 7: 1%
  %WT GAIN ON DAY 14: 4%
  %WT GAIN ON DAY 21: 5%
  %WT GAIN ON DAY 30: 7%
[15]
  EC50: 8.9 µM
[16]
  EC50: 15.4 µM
[17]
  neurotoxicity: very neurotoxic
[17]; FMAU i.v. x 5, FEAU x 10 (preliminary)
  lethal dose: 2.5 mg/kg/day
[18]
  toxicity: relatively nontoxic
